This passage reports IC50 results from patent US20240216357A1 (SICHUAN HUIYU PHARMACEUTICAL CO., LTD., priority 2021, published 2024).

Each structure is given as a SMILES string. Structures can show the parent of a compound that is named as a salt. Where two headings read alike, the source gives them in different places.

In experiment [1] the target is LSD1 (Homo sapiens (Human), UniProt O60341). The experiment can be described thus: LSD1 enzyme activity detection (HTRF). It counts as biochemical. The conditions noted are these: read-out: Inhibition of enzymatic activity of LSD1 IC50.
Experiment [2] deals with NCI-H1417 cells. Put plainly: In vitro cell proliferation detection (CellTiter-Glo, 7 days). It counts as cell-based. For orientation: In ATP-based viability assays light output follows the ATP content of the culture.
Where [3] appears, read: Homo sapiens, 168 h, NCI-H1417 cells, 7 days, CellTiter-Glo, read-out: NCI-H1417 proliferation inhibition IC50.

With `CN(CCCN)c1nc(-c2ccc(C#N)c(F)c2)c(-c2ccc(F)c(O)c2)c2nccn12` [Example 148, 4-(5-((3-aminopropyl) (methyl)amino)-8-(4-fluoro-3-hydroxyphenyl)imidazolo [1,2-c]pyrimidin-7-yl)-2-fluorobenzonitrile], the IC50 in experiment [1] (HTRF, H3K4me1 substrate) is 6.9 ± 1.3 nM; in experiment [2] (setting [3]), 78 nM.
In the same order, the values of `N#Cc1ccc(-c2nc(CCCN[C@@H]3C[C@H]3c3ccc(F)cc3)cc(C(=O)N3CCC(F)(F)CC3)n2)cc1` [Example 258, 4-(4-(4,4-difluoropiperidine-1-carbonyl)-6-(3-(((1R,2S)-2-(4-fluorophenyl)cyclopropyl)amino)propyl)pyrimidin-2-yl)benzonitrile hydrochloride] are 232 nM and 89.7 nM.
For the compound `COc1ccc(-c2c(OCC3COC3)cc(N3CCC(N)CC3)nc2-c2ccc(C#N)c(F)c2)cc1O` [Example 109, 4-(6-(4-aminopiperidin-1-yl)-3-(3-hydroxy-4-methoxyphenyl)-4-(oxetane-3-yl-methoxy)pyridin-2-yl)-2-fluorobenzonitrile hydrochloride], the IC50 in experiment [1] (HTRF, H3K4me1 substrate) turned out to be 4 ± 1.7 nM; in experiment [2] (setting [3]), 16 nM.
Taken in the same sequence, the figures for `Cc1ccc(-c2c(-c3ccc(C#N)cc3)cc3c(N4CCC(N)CC4)nccn23)cc1` [Example 193, 4-(1-(4-aminopiperidin-1-yl)-6-(p-tolyl)pyrrolo[1,2-a]pyrazin-7-yl)benzonitrile hydrochloride] were 1.72 nM and 61.4 nM.
In the same order, the values of `N#Cc1ccc(-c2nc(N3CCC(N)CC3)cc(O)c2-c2ccc(N3CCOCC3)cc2)cc1F` [Example 21, 4-(6-(4-aminopiperidin-1-yl)-4-hydroxy-3-(4-morpholinophenyl)pyridin-2-yl)-2-fluorobenzonitrile hydrochloride] are 10.5 nM and 38.7 nM.
Taken in the same sequence, the figures for `COc1ccc(-c2c(O)cc(N3CC[C@@H](N)[C@H](OC)C3)nc2-c2ccc(C#N)c(F)c2)cc1F` [Example 51, 4-(6-((3R,4R)-4-amino-3-methoxypiperidin-1-yl)-3-(3-fluoro-4-methoxyphenyl)-4-hydroxypyridin-2-yl)-2-fluorobenzonitrile] were 64 ± 20 nM and 88.2 nM.
In the case of `COc1ccc(-c2c(-c3ccc(C#N)c(F)c3)nc(N3CC4CC(C3)C4N)n3ccnc23)cc1O` (stereo not drawn) [Example 163, 4-(5-(6-amino-3-azabicyclo[3.1.1]heptan-3-yl)-8-(3-hydroxy-4-methoxyphenyl)imidazolo[1,2-c]pyrimidin-7-yl)-2-fluorobenzonitrile hydrochloride], the IC50 is 5.6 ± 1.6 nM in experiment [1] (HTRF, H3K4me1 substrate) and 9.11 nM in experiment [2] (setting [3]).
In the case of `COc1ccc(-c2c(-c3ccc(C#N)cc3)nc(N3C4CCC3CC(N)C4)n3ccnc23)cc1F` (stereo not drawn) [Example 178, 4-(5-(3-amino-8-azabicyclo [3.2.1]octane-8-yl)-8-(3-fluoro-4-methoxyphenyl)imidazolo[1,2-c]pyrimidin-7-yl) benzonitrile hydrochloride], the IC50 in experiment [1] (HTRF, H3K4me1 substrate) was determined as 3.8 ± 2.2 nM; in experiment [2] (setting [3]), 6.24 nM.
For the compound `Cc1ccc(-c2c(-c3ccc(C#N)c(F)c3)nc(N3CCC(C)(N)CC3)n3ccnc23)cc1O` [Example 145, 4-(5-(4-amino-4-methylpiperidin-1-yl)-8-(3-hydroxy-4-methylphenyl)imidazolo[1,2-c]pyrimidin-7-yl)-2-fluorobenzonitrile], the IC50 was determined as 1 ± 0.2 nM in experiment [1] (HTRF, H3K4me1 substrate) and 2.42 nM in experiment [2] (setting [3]).
In the case of `Cc1ccc(-c2c(-c3ccc(C#N)cc3)cc3c(N4CCC[C@@H](N)C4)cccn23)cc1` [Example 10, (R)-4-(8-(3-aminopiperidin-1-yl)-3-(p-tolyl)indolizin-2-yl)benzonitrile hydrochloride], the IC50 came out at 79.1 ± 18.9 nM in experiment [1] and 371 nM in experiment [2] (Homo sapiens, NCI-H1417, 168 h, read-out: NCI-H1417 proliferation inhibition IC50(nM)).
Turning to `COc1ccc(-c2sc(C(=O)N3C4CCC3CC(N)C4)cc2-c2ccc(C#N)c(F)c2)cc1O` (stereo not drawn) [Example 218, 4-(5-(3-amino-8-azabicyclo [3.2.1]octan-8-carbonyl)-2-(3-hydroxy-4-methoxy-phenyl)thiophen-3-yl)-2-fluorobenzonitrile], the IC50 in experiment [1] (HTRF, H3K4me1 substrate) stood at 0.15 ± 0.03 nM; in experiment [2] (setting [3]) it was 0.88 nM.
Taken in the same sequence, the figures for `O=C(NC1CCOCC1)c1cc(CN[C@@H]2C[C@H]2c2ccc(F)cc2)nc(-c2ccccc2)n1` [Example 237] were 423 ± 23 nM and 28.3 nM.
Taken in the same sequence, the figures for `N#Cc1ccc(-c2cc(C(=O)N3C4CCC3CC(N)C4)sc2-c2ccncn2)cc1F` (stereo not drawn) [Example 202, 4-(5-(3-amino-8-azabicyclo [3.2.1]octane-8-carbonyl)-2-(pyrimidin-4-yl)thiophen-3-yl)-2-fluoro-benzonitrile hydrochloride] were 77.1 nM and over 1000 nM.
In the same order, the values of `N#Cc1ccc(-c2nc(N3CCC(N)CC3)n3ccnc3c2-c2ccc(Cl)c(O)c2)cc1F` [Example 142, 4-(5-(4-aminopiperidin-1-yl)-8-(4-chloro-3-hydroxyphenyl)imidazolo[1,2-c]pyrimidin-7-yl)-2-fluorobenzonitrile formate] are 0.198 nM and 0.214 nM.
Consider `COc1ccc(-c2c(OCC3CCC3)cc(N3CCC(N)CC3)nc2-c2ccc(C#N)c(F)c2)cc1O` [Example 107, 4-(6-(4-aminopiperidin-1-yl)-4-(cyclobutylmethoxy)-3-(3-hydroxy-4-methoxyphenyl)pyridin-2-yl)-2-fluorobenzonitrile hydrochloride], for which the IC50 in experiment [1] (HTRF, H3K4me1 substrate) stood at 2.5 ± 1.7 nM; in experiment [2] (setting [3]), 8.35 nM.
In the same order, the values of `CNC1CCCN(c2nc(-c3ccc(C#N)c(F)c3)c(-c3ccc(OC)c(F)c3)c3nccn23)C1` (stereo not drawn) [Example 119, 2-fluoro-4-(8-(3-fluoro-4-methoxyphenyl)-5-(3-(methylamino)piperidin-1-yl)imidazolo[1,2-c]pyrimidin-7-yl) benzonitrile] are 9.54 ± 1.2 nM and 39.1 nM.
In the same order, the values of `COc1ccc(-c2c(-c3ccc(C#N)c(F)c3)nc(N(C)CCCN)n3ccnc23)cc1O` [Example 144, 4-(5-((3-aminopropyl) (methyl)amino)-8-(3-hydroxy-4-methoxyphenyl)imidazolo[1,2-c]pyrimidin-7-yl)-2-fluorobenzonitrile] are 1.6 ± 0.2 nM and 18.2 nM.
Turning to `COc1cc(N2CCN(C)CC2)nc(-c2ccc(C#N)c(F)c2)c1-c1ccc(C)c(O)c1` [Example 100, 2-fluoro-4-(3-(3-hydroxy-4-methylphenyl)-4-methoxy-6-(4-methylpiperazin-1-yl)pyridin-2-yl) benzonitrile], the IC50 came to 8.9 ± 0.3 nM in experiment [1] (HTRF, H3K4me1 substrate) and 3.18 nM in experiment [2] (setting [3]).
On to `Cc1sc(C(=O)N2C3CCC2CC(N)C3)cc1-c1ccc(C#N)c(F)c1` (stereo not drawn) [Example 199, 4-(5-(3-amino-8-azadicyclo [3.2.1]octane-8-carbonyl)-2-methylthiophene-3-yl)-2-fluorobenzonitrile hydrochloride], for which the IC50 is 72 nM in experiment [1] (HTRF, H3K4me1 substrate) and over 1000 nM in experiment [2] (setting [3]).
Taken in the same sequence, the figures for `CNC1CCCN(c2cc(O)c(-c3ccc(OC)c(F)c3)c(-c3ccc(C#N)c(F)c3)n2)C1` (stereo not drawn) [Example 16, 2-fluoro-4-(3-(3-fluoro-4-methoxyphenyl)-4-hydroxy-6-(3-(methylamino)piperidin-1-yl)pyridin-2-yl)benzonitrile] were 15.2 ± 3.7 nM and 38 nM.
In the same order, the values of `Cc1ccc(-c2c(O)cc(N3CCC(N)CC3)nc2-c2ccc(C#N)c(F)c2)cc1O` [Example 60] are 0.4 ± 0.2 nM and 0.49 nM.
Taken in the same sequence, the figures for `CC(C)(O)Cc1ccc(-c2c(O)cc(N3CCC(N)CC3)nc2-c2ccc(C#N)c(F)c2)c(F)c1` [Example 32, 4-(6-(4-aminopiperidin-1-yl)-3-(2-fluoro-4-(2-hydroxy-2-methylpropyl)phenyl)-4-hydroxypyridin-2-yl)-2-fluorobenzonitrile hydrochloride] were 48.8 nM and 262 nM.
In the case of `Cc1nc(N2CCC(N)CC2)c(C#N)c(-c2ccc(C#N)c(F)c2)c1-c1cc2onc(C)c2cc1F` [Example 277, 2-(4-aminopiperidin-1-yl)-4-(4-cyano-3-fluorophenyl)-5-(5-fluoro-3-methylbenzo[d]isoxazol-6-yl)-6-methylnicotinonitrile], the IC50 in experiment [1] (HTRF, H3K4me1 substrate) came to 0.39 nM; in experiment [2] (setting [3]), 1.33 nM.
Turning to `N#Cc1ccc(-c2nc(N3C4CCC3CC(N)C4)n3ccnc3c2-c2cc3nonc3cc2F)cc1F` (stereo not drawn) [Example 186, 4-(5-(3-amino-8-azabicyclo[3.2.1]octane-8-yl)-8-(6-fluorobenzo[c] [1,2,5]oxadiazole-5-yl)imidazolo [1,2-c]pyrimidin-7-yl)-2-fluorobenzonitrile], the IC50 was 17.3 nM in experiment [1] (HTRF, H3K4me1 substrate) and 18 nM in experiment [2] (setting [3]).
As for `COc1ccc(-c2c(OC)cc(N3CCNCC3)nc2-c2ccc(C#N)c(F)c2)cc1O` [Example 96, 2-fluoro-4-(3-(3-hydroxy-4-methoxyphenyl)-4-methoxy-6-(piperazinyl)pyridin-2-yl)benzonitrile hydrochloride], the IC50 in experiment [1] (HTRF, H3K4me1 substrate) was 3 ± 0.6 nM; in experiment [2] (setting [3]), 11.8 nM.
Taken in the same sequence, the figures for `CS(=O)(=O)N1CCN(C(=O)c2cc(CN[C@@H]3C[C@H]3c3ccc(F)cc3)nc(-c3ccc(F)c(O)c3)n2)CC1` [Example 238, (2-(4-fluoro-3-hydroxy phenyl)-6-(((1R,2S)-2-(4-fluorophenyl)cyclo-propyl)amino)methyl) pyrimidin-4-yl)(4-(methyl-sulfonyl)piperazin-1-yl) methanone hydrochloride] were 98 ± 1 nM and 5.31 nM.
Take `Cc1ccc(-c2c(-c3ccc(C#N)c(F)c3)nc(N3CCC(N)CC3)c3ccoc23)cc1O` [Example 268, 4-(4-(4-aminopiperidin-1-yl)-7-(3-hydroxy-4-methylphenyl)furan[3,2-c]pyridin-6-yl)-2-fluorobe nzonitrile hydrochloride]: the IC50 in experiment [1] is 1.5 ± 0.5 nM; in experiment [2] (read-out: NCI-H1417 proliferation inhibition IC50), 0.378 nM.
